According to patent publication US20260027116A1, “Methods of Treating Chronic Graft-Versus-Host Disease Following Allogeneic Hematopoietic Stem Cell Transplantation” (Kadmon Corporation, LLC, priority 2022, published 2026):

Test system: chronic graft-versus-host disease (cGVHD)
Assay: Example 1 phase IIa study: response per 2014 NIH cGVHD criteria (ORR, BOR, DOR, TTR, TTNT, FFS, OS, organ response)
Type: in vivo, human
Conditions: for DOR, median (95% CI) / TTR, median: responder population
Excerpt: Eligible patients were allogeneic bone marrow transplant or allogeneic hematopoietic cell transplant (alloHCT) recipients of age≥18 years with persistent cGVHD manifestations after having received one to three prior systemic lines of therapy and who were receiving corticosteroid treatment with or without a calcincurin inhibitor and/or concurrent extracorporeal photopheresis.
Inclusion criteria. Adult male and female subjects at least 18 years of age who had allogenic bone marrow transplant or hematopoietic stem cell transplantation. Received glucocorticoid therapy and calcineurin therapy or glucocorticoid therapy alone for cGVHD at study entry. Participants on calcineurin therapy only, without glucocorticoid therapy, were not eligible. Participants also received other therapies thought not to be immunosuppressive (such as extracorporeal photopheresis; ECP), were considered for enrollment in this study on a case-by-case basis. […] No more than 3 prior lines of treatment for cGVHD. Karnofsky Performance Scale of greater than (>) 40.
Exclusion Criteria. Participant who was pregnant or breastfeeding. Received an investigational GVHD treatment within 28 days of study entry. Had acute GVHD. Taken any medication known to be a moderate or strong inhibitor of the cytochrome (CY) P3A4 isozyme or any drugs that are moderate or strong CYP3A4 inducers. History or other evidence of severe illness or any other conditions that would make the participant, in the opinion of the investigator, unsuitable for the study (such as poorly controlled psychiatric disease or coronary artery disease). Regular and excessive use of alcohol within the 6 months prior to study entry defined as alcohol intake>14 drinks per week in a man or >7 drinks per week in a woman. Approximately 10 grams of alcohol equals one “drink” unit. One unit equals 1 ounce of distilled spirits, one 12-ounce beer, or one 4-ounce glass of wine. Known history of human immunodeficiency virus or active hepatitis C virus or hepatitis B virus. Diagnosed with another malignancy (other than malignancy for which transplant was performed) within 3 years of enrollment, with the exception of completely resected basal cell or squamous cell carcinoma of the skin, resected in situ cervical malignancy, resected breast ductal carcinoma in situ, or low-risk prostate cancer after curative resection. Relapse of the underlying cancer or post-transplant lymphoproliferative disease at the time of screening. […] Taken other immunosuppressant drugs for GVHD, including mammalian target of rapamycin inhibitors (Note: Only steroids, calcineurin inhibitors, and ECP are acceptable). Corrected QT interval using Fridericia's formula >450 milliseconds.
(FIG. 1) Before enrollment of the subsequent cohort, safety data in each previous cohort were analyzed after eight patients reached two months of treatment to assure that there was no safety signal. […] No safety concerns were identified, allowing for planned dose escalation.
Progression was defined per the 2014 NIH cGVHD Consensus Criteria. Long-term follow-up was conducted every 8 weeks until study closeout. […] Screening was conducted within 28 days of the first study dose. Response was initially assessed after two cycles; however, this was amended to evaluate response on day 1 of each cycle, starting at cycle 2 day 1.
All responses were assessed by the investigators.
Assuming a best ORR of 25%, which was determined to be clinically meaningful, the study was expected to have approximately 90% probability to show a response in ≥2 patients per cohort. This study was not powered to show significant differences between cohorts with respect to efficacy, AEs, or PD analyses. The primary analysis was conducted using the safety population, defined as enrolled patients who received ≥1 dose of study medication. The Clopper-Pearson (exact) method was used to construct the two-sided 95% CI for ORR. The Kaplan-Meier (K-M) method was used to calculate estimates of FFS and OS. […]

`CC(C)NC(=O)COc1cccc(-c2nc(Nc3ccc4[nH]ncc4c3)c3ccccc3n2)c1` [Belumosudil, 2-{3-[4-(1H-indazol-5-ylamino)-2-quinazolinyl]phenoxy}-N-(propan-2-yl) acetamide] was tested, and the “BOR CR, participants (%)” value (Cohort 1 200 mg QD) was 0 (0%) participants, the “BOR LOR-M, participants (%)” value (Cohort 1 200 mg QD) was 2 (12%) participants and the “BOR LOR-P, participants (%)” value (Cohort 1 200 mg QD) was 2 (12%) participants. For the same molecule, the “BOR LOR-U, participants (%)” value (Cohort 1 200 mg QD) was 2 (12%) participants, the “BOR PR, participants (%)” value (Cohort 1 200 mg QD) was 11 (65%) participants and the “FFS, median (95% CI)” value (Cohort 1 200 mg QD) was 11 (4-na* %) months. For the same molecule, the “ORR subgroup refractory to previous LOT, n/N” value (shortened to “ORR subgroup refractory … n/N”) (Cohort 1 200 mg QD) was 7/11, the “ORR subgroup severe cGVHD, n/N” value (Cohort 1 200 mg QD) was 8/12 and the “ORR subgroup ≤2 prior LOTs, n/N” value (Cohort 1 200 mg QD) was 10/15. For the same molecule, the “ORR subgroup ≤4 organs involved, n/N” value (Cohort 1 200 mg QD) was 4/8, the “ORR, % (95% CI)” value (Cohort 1 200 mg QD) was 65% and the “TTNT, median (95% CI)” value (Cohort 1 200 mg QD) was 15 (5-NA* %) months. The “best response (CR or PR) in Skin, percentage of participants” value (Cohort 1 200 mg QD) was “(23%)”, the “best response in Esophagus, percentage of participants” value (Cohort 1 200 mg QD) was “(50%)” and the “best response in Eyes, percentage of participants” value (“best response in Eyes, percentage” for short) (Cohort 1 200 mg QD) was “(36%)”. For the same molecule, the “best response in Joints and Fascia, percentage of participants” value (Cohort 1 200 mg QD) was “(55%)”, the “best response in Lower GI tract, percentage of participants” value (Cohort 1 200 mg QD) was “(0%)” and the “best response in Lungs, percentage of participants” value (from here on “best response in Lungs, percentage”) (Cohort 1 200 mg QD) was “(0%)”. The “best response in Mouth, percentage of participants” value (shortened to “best response in Mouth, percentage”) (Cohort 1 200 mg QD) was “(46%)”, the “best response in Upper GI tract, percentage of participants” value (Cohort 1 200 mg QD) was “(100%)” and the “DOR, median (95% CI)” value (Cohort 1, 200 mg QD) was 40 (8-na* %) weeks. For the same molecule, the “TTR, median” value (Cohort 1, 200 mg QD) was 8.14 weeks, the “BOR CR, participants (%)” value (Cohort 2 200 mg BID) was 0 (0%) participants and the “BOR LOR-M, participants (%)” value (Cohort 2 200 mg BID) was 1 (6%) participants. The “BOR LOR-P, participants (%)” value (Cohort 2 200 mg BID) was 1 (6%) participants, the “BOR LOR-U, participants (%)” value (Cohort 2 200 mg BID) was 3 (19%) participants and the “BOR PR, participants (%)” value (Cohort 2 200 mg BID) was 11 (69%) participants. For the same molecule, the “FFS, median (95% CI)” value (Cohort 2 200 mg BID) was 10 (4-19%) months, the “ORR subgroup refractory … n/N” value (Cohort 2 200 mg BID) was 6/9 and the “ORR subgroup severe cGVHD, n/N” value (Cohort 2 200 mg BID) was 9/14. The “ORR subgroup ≤2 prior LOTs, n/N” value (Cohort 2 200 mg BID) was 5/8, the “ORR subgroup ≤4 organs involved, n/N” value (Cohort 2 200 mg BID) was 8/10 and the “ORR, % (95% CI)” value (Cohort 2 200 mg BID) was 69%. For the same molecule, the “TTNT, median (95% CI)” value (Cohort 2 200 mg BID) was 10 (4-19%) months, the “best response (CR or PR) in Skin, percentage of participants” value (Cohort 2 200 mg BID) was “(17%)” and the “best response in Eyes, percentage” value (Cohort 2 200 mg BID) was “(36%)”. For the same molecule, the “best response in Joints and Fascia, percentage of participants” value (Cohort 2 200 mg BID) was “(46%)”, the “best response in Liver, percentage of participants” value (Cohort 2 200 mg BID) was “(50%)” and the “best response in Lower GI tract, percentage of participants” value (Cohort 2 200 mg BID) was “(100%)”. The “best response in Lungs, percentage” value (Cohort 2 200 mg BID) was “(0%)”, the “best response in Mouth, percentage” value (Cohort 2 200 mg BID) was “(46%)” and the “best response in Upper GI tract, percentage of participants” value (Cohort 2 200 mg BID) was “(100%)”. The “DOR, median (95% CI)” value (Cohort 2, 200 mg BID) was 11 (2-35%) weeks, the “TTR, median” value (Cohort 2, 200 mg BID) was 8.14 weeks and the “BOR CR, participants (%)” value (Cohort 3 400 mg QD) was 0 (0%) participants. The “BOR LOR-M, participants (%)” value (Cohort 3 400 mg QD) was 0 (0%) participants, the “BOR LOR-P, participants (%)” value (Cohort 3 400 mg QD) was 1 (5%) participants and the “BOR LOR-U, participants (%)” value (Cohort 3 400 mg QD) was 4 (19%) participants. For the same molecule, the “BOR PR, participants (%)” value (Cohort 3 400 mg QD) was 12 (57%) participants, the “FFS, median (95% CI)” value (Cohort 3 400 mg QD) was 10 (3-16%) months and the “ORR subgroup refractory … n/N” value (Cohort 3 400 mg QD) was 9/15. The “ORR subgroup severe cGVHD, n/N” value (Cohort 3 400 mg QD) was 8/16, the “ORR subgroup ≤2 prior LOTs, n/N” value (Cohort 3 400 mg QD) was 8/12 and the “ORR subgroup ≤4 organs involved, n/N” value (Cohort 3 400 mg QD) was 7/9. For the same molecule, the “ORR, % (95% CI)” value (Cohort 3 400 mg QD) was 62%, the “TTNT, median (95% CI)” value (Cohort 3 400 mg QD) was 14 (3-NA %) months and the “best response (CR or PR) in Skin, percentage of participants” value (Cohort 3 400 mg QD) was “(13%)”. The “best response in Esophagus, percentage of participants” value (Cohort 3 400 mg QD) was “(25%)”, the “best response in Eyes, percentage” value (Cohort 3 400 mg QD) was “(24%)” and the “best response in Joints and Fascia, percentage of participants” value (Cohort 3 400 mg QD) was “(42%)”. The “best response in Lower GI tract, percentage of participants” value (Cohort 3 400 mg QD) was “(0%)”, the “best response in Lungs, percentage” value (Cohort 3 400 mg QD) was “(30%)” and the “best response in Mouth, percentage” value (Cohort 3 400 mg QD) was “(46%)”. For the same molecule, the “best response in Upper GI tract, percentage of participants” value (Cohort 3 400 mg QD) was “(50%)”, the “DOR, median (95% CI)” value (Cohort 3, 400 mg QD) was 16 (4-38%) weeks and the “TTR, median” value (Cohort 3, 400 mg QD) was 8.07 weeks. The “2-year OS rate” value (Example 1) was 82%, the “12-month FFS rate with response” value (Example 1) was 24% and the “ORR among patients with nonsevere cGVHD” value (Example 1) was 83%. The “median DOR across all responders” value (Example 1) was 35 weeks, the “share of all responses achieved by first response assessment at week 8” value (Example 1) was > 75% and the FFS rate (Example 1, at 6 months) was 76%. For the same molecule, the FFS rate (Example 1, at 12 months) was 47%, the “median TTNT” value (Example 1, pooled) was 14 months and the “patients with progression in joints” value (Example 1, safety population (FIG. 3B)) was 11 patients. The “ORR subgroup refractory to previous LOT, % (95% CI)” value (Total, N=54) was 63%, the “ORR subgroup severe cGVHD, % (95% CI)” value (Total, N=54) was 60% and the “ORR subgroup ≤2 prior LOTs, % (95% CI)” value (Total, N=54) was 66%. The “ORR subgroup ≤4 organs involved, % (95% CI)” value (Total, N=54) was 70%, the “ORR, % (95% CI)” value (Total, N=54) was 65% and the “ORR subgroup refractory … n/N” value (Total, N=54, listed as KD025) was 22/35. The “ORR subgroup severe cGVHD, n/N” value (Total, N=54, listed as KD025) was 25/42, the “ORR subgroup ≤2 prior LOTs, n/N” value (Total, N=54, listed as KD025) was 23/35 and the “ORR subgroup ≤4 organs involved, n/N” value (Total, N=54, listed as KD025) was 19/27.
